Reference: patent publication US10172946B2, “Monodisperse glycogen and phytoglycogen nanoparticles and use thereof as additives in cosmetics, pharmaceuticals, and food products” (Mirexus Biotechnologies Inc., priority 2013, dated 2019)

Test: Photostability of phytoglycogen-ethyl-4-aminocinnamate conjugate versus aminocinnamate
Assay type: physicochemical
Settings: after 4 h of exposure to UV-irradiation, thin film
Protocol: Aminocinnamate and a phytoglycogen-ethyl-4-aminocinnamate conjugate were dissolved in ethanol or in water, respectively.
Solutions were deposited as thin films onto a quartz plate and dried in air for 30 min. After drying, the samples were irradiated with UV light, as in Example 11, for 4 h and then tested for their photostability.
Photodegradation was calculated from the decrease in the maximum absorption of the respective products.

maximum absorbance retained: 40%
SMILES: CCOC(=O)C=Cc1ccc(N)cc1 [aminocinnamate, ethyl 4-aminocinnamate]
